Results: patent US20200253929A1, “TREATMENT OF EPILEPSY” (priority 2017, published 2020)

Key:
[1] = tested on: zebrafish larvae; experiment: Zebrafish toxicity evaluation (maximum tolerated concentration); type: in vivo, Danio rerio; conditions: up to 18 hours exposure, 100 μg/mL used where no MTC was reached
Experimental: In case no MTC was reached, 100 μg/mL was used as the test concentration. In line with studies previously reported [Baraban et al. (2005) Neurosci 131, 759-768; Afrikanova et al. (2013) PLoS One 8, e54166], addition of the GABAA-receptor antagonist PTZ to the swimming water of 7 days post-fertilization (dpf) zebrafish larvae strongly elevated larval locomotion (p≤0.001) (FIGS. 2 and 3) as a result of induced seizures (or seizure-like behavior) that were recognized as typical high-speed swimming, whirlpool-like circling, clonus-like seizures, and loss of posture, as previously described in Baraban et al cited above.
Maximum tolerated concentration (MTC) was determined prior to further experiments and used as the highest test concentration. MTC was investigated by exposing 12 larvae of 6 days post-fertilization (dpf) to a range of concentrations in a 100 μL volume during 18 hours. The following parameters were investigated after 2 and 18 hours of exposure: touch response, morphology, posture, edema, signs of necrosis, swim bladder, and heartbeat. […] In case MTC was not reached, 100 μg/mL was used as the highest test concentration.

[2] = tested on: THLE2 cells; experiment: Cell viability MTT assay, THLE2 cells; type: cell-based, human; conditions: 24 h incubation; for IC50: read-out: Cytotoxicity THLE2 cells IC50
Experimental: Protocol was based on literature [Patel and Patel. (2011) J. App. Pharm. Sci 1, 167-171]. Three cell lines were used: a) Hep G2 (HB-8065), a well-differentiated human hepatocellular carcinoma cell line, b) THLE-2, human liver epithelial cells transformed with SV40 large T-antigen and c) SHSYSY, a thrice-cloned sub-line of a human metastatic bone tumor. Cells were seeded at a concentration of 1×10^4 cells/well in 200 μL culture medium and incubated at 37° C. in 5% CO2 using 96-well plates for 24 h. Next, the medium was replaced with medium complemented with test compounds. After another 24 h incubation, the medium was replaced by 100 μL of a MTT (3-(4,5-dimethylthiazol-2-yl)-2,5-diphenyltetrazolium bromide) solution (5 mg/mL in PBS and diluted at 0.5 mg/mL in MEM without phenol red). The plates were gently shaken and incubated for 3 hours at 37° C. in a 5% CO2 incubator. The supernatant was removed and 100 μL of 100% DMSO was added. The plates were gently shaken to solubilize the formed formazan. The absorbance was measured using a multireader (Victor2 (Wallac)) at a wavelength of 570 nm.

[3] = target: T1, CYP2D6 (Homo sapiens, UniProt P10635); experiment: CYP450 enzyme inhibition assay, CYP2D6; type: in vitro ADME; conditions: human liver microsomes; for IC50: dextromethorphan probe
T1 construct: containing Human Liver Microsomes (HLM) (0.5 mg/mL); from tissue; host or cells: human liver microsomes
Experimental: Protocol was based on literature [Perez-Del Palacio et al. (2017) Front Pharmacol 8, 202]. Assessment of CYP450 inhibition was conducted in 96-well plate format at 37° C. Test compounds were dissolved in DMSO/acetonitrile (2 μL) and diluted in 98 μL NADPH solution (2 mM). Reactions were started by addition of 100 μL potassium phosphate buffer (200 mM, pH 7.4) containing Human Liver Microsomes (HLM) (0.5 mg/mL). Probe reactions for CYP3A4, CYP2D6 and CYP2C9 were conducted with 50 μM testosterone, 22 μM dextromethorphan and 10 μM diclofenac for 15 min. Reactions were terminated with the addition of a quench solution (90 μL) of acetonitrile containing internal standards for LC-MS/MS determination (60 ppb cortisone, 100 ppb 4′-hydroxydiclofenac 13C6, 60 ppb levallorphan).

[4] = Plasma protein binding assay (rapid equilibrium dialysis); type: in vitro ADME; conditions: for Protein binding: rapid equilibrium dialysis, 5 μM, 5 h
Experimental: Protocol was based on literature [Kumar Singh et al. (2012)1 Bioeq. Bioay. S14]. Rapid equilibrium dialysis was performed with RED device inserts (Thermo Scientific, Meridian Rd., Rockford, Ill.) containing dialysis membrane with a molecular weight cut-off of 8,000 Daltons. Serum (200 μL) containing test compound (5 μM) was added to the serum chamber of the insert and 350 μL of buffer was added to the buffer chamber of the insert. Dialysis was done at 37° C. with shaking at 100 rpm for 5 h. Following dialysis, an aliquot of 50 μL was removed from each well (plasma and buffer side) and diluted with an equal volume of opposite matrix to nullify the matrix effect. Then a fraction (50 μL) of each dialyzed sample was crashed with 150 μL of acetonitrile containing internal standard and vortexed for 1 min. The samples were centrifuged at 13300 rpm at 4° C. for 12 min and 100 μL of supernatant was used for LC-MS/MS analysis.

T1 sequence (P10635 whole entry): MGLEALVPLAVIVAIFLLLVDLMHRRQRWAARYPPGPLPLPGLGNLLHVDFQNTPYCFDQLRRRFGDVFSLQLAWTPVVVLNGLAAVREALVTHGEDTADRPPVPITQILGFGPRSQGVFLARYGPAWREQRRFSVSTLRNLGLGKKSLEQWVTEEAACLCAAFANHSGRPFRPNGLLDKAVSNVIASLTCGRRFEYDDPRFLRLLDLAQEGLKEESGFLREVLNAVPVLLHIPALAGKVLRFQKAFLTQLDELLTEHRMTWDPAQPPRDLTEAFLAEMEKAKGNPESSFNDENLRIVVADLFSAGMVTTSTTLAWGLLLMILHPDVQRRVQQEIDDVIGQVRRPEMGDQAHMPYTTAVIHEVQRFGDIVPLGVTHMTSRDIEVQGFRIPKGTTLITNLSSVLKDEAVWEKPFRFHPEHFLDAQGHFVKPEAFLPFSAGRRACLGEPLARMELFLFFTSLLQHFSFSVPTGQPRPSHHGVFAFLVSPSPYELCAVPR

Row | Structure (SMILES) | MTC (maximum tolerated concentration) [1] [µg/mL] | Cytotoxicity THLE2 cells, effect [2] | IC50 [2] [µM] | CYP2D6, effect [3] | IC50 [3] [µM] | Protein binding assay recovery [4] [%] | Protein binding, percentage of free drug rating [4] | Protein binding [4] [%] | Protein binding ([4]; listed as Azaspirofuran A) [%] | Protein binding ([4]; listed as Pseurotin A2) [%]
1 | CCc1ccc(C2=C(C)C(=O)C3(O2)C(=O)NC(OC)(C(=O)c2ccccc2)C3O)o1 (stereo not drawn) [azaspirofuran A] | 12.5 | Weak | > 50 | Weak | 23.4 | 66.7 | Low | 95 | 95.42 | –
2 | CC/C=C\[C@H](O)[C@H](O)C1=C(C)C(=O)[C@]2(O1)C(=O)N[C@](OC)(C(=O)c1ccccc1)[C@H]2O [pseurotin A2] | 12.5 | Weak | > 50 | No effect | > 88 | 100 | High | 37 | – | 36.53
